Columns and labels:
FADD−/− Jurkat cells = test: Necroptosis inhibition assay, TNF-α-induced necroptosis (CellTiter-Glo 2.0); type: cell-based, human; settings: TNF-α 15 ng/mL; for Necroptosis inhibition assay (Rescue %) 1 μM: compound 1 μM; for Necroptosis inhibition assay (Rescue %) 10 μM: compound 10 μM
In short: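 Compound is added to cells at final concentrations of 0.1, 1 and 10 μM and left 30 minutes at room temperature. Necroptosis is induced with 15 ng/mL TNF-α, culture continues 20 to 24 hours at 37° C, and ATP-based luminescence reports viability.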

MLKL [1] = target: T1, MLKL (Homo sapiens, UniProt Q8NB16); test: Measurement of binding affinity with MLKL receptor (competitive binding assay, Kd); parameters: made in house; host or cells: HEK 293 cell line (T7 phage in E. coli BL21-derived host is also described)
T1 sequence (Q8NB16 1-471): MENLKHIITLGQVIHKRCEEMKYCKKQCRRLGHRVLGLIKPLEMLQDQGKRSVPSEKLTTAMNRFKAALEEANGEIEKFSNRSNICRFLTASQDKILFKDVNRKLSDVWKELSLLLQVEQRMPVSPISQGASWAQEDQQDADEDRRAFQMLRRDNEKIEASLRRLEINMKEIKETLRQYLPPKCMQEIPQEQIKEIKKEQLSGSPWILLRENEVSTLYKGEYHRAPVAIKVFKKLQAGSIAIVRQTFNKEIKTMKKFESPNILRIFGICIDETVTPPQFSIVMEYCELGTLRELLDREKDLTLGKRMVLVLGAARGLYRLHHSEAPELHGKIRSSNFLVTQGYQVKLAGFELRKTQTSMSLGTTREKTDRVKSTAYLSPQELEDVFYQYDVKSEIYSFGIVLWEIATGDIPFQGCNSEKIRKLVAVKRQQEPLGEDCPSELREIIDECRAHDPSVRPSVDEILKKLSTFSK
In short: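 MLKL was produced in HEK 293 cells and tagged with DNA for detection. Liganded beads were blocked with excess biotin and washed to cut non-specific binding, then compounds (111× DMSO stocks, 0.9% DMSO in assay) competed for binding. Eluate kinase was measured by qPCR for Kd.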

MLKL [2] = target: T1, MLKL; test: MLKL degradation assay in HepG2 cell line (western blot); type: cell-based; parameters: endogenous in cells; host or cells: HepG2 or HaCaT; settings: cell line not given; for Degradation assay (Degradation %) 1 μM: compound 1 μM; for Degradation assay (Degradation %) 10 μM: compound 10 μM
In short: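 Chemiluminescent western blot signal reports remaining MLKL protein in HepG2 cells after 20-24 h treatment with compound at a final 1 or 10 μM. Equal protein (10-15 μg, BCA) is loaded per lane.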

Row | SMILES | Necroptosis inhibition assay (Rescue %) 1 μM (FADD−/− Jurkat cells; FADD−/− Jurkat cells) | Necroptosis inhibition assay (Rescue %) 10 μM (FADD−/− Jurkat cells; FADD−/− Jurkat cells) | Kd (MLKL [1]) | Degradation assay (Degradation %) 1 μM (MLKL [2]) | Degradation assay (Degradation %) 10 μM (MLKL [2]) | Necroptosis inhibition assay (Rescue %) 1 μM (FADD−/− Jurkat cells) | Necroptosis inhibition assay (Rescue %) 10 μM (FADD−/− Jurkat cells) | Necroptosis inhibition assay (Rescue %) 1.1 μM (FADD−/− Jurkat cells; compound 1.1 µM)
1 | COc1ccc(C(=O)N2CCC(C(=O)N3CCC(OCCN4CCC(CN5CCC(n6cc(-c7cnc(N)c(C(=O)O[C@@H](C(=O)Nc8ccc(F)cc8)c8ccccc8)n7)cn6)CC5)CC4)CC3)CC2)cc1N1CCC(=O)NC1=O [TDH-512, (R)-2-((4-fluorophenyl)amino)-2-oxo-1-phenylethyl 3-amino-6-(1-(1-((1-(2-((1-(1-(3-(2,4-dioxotetrahydropyrimidin-1(2H)-yl)-4-methoxybenzoyl)piperidine-4-carbonyl)piperidin-4-yl)oxy)ethyl)piperidin-4-yl)methyl)piperidin-4-yl)-1H-pyrazol-4-yl)pyrazine-2-carboxylate] | 24.43% | 52.33% | 0.74 nM | 51.41% | 80.48% | – | – | –
2 | Nc1ncc(-c2cnn(C3CCN(CCCCCCCCCCNC(=O)COc4ccc5nnn(C6CCC(=O)NC6=O)c(=O)c5c4)CC3)c2)nc1C(=O)O[C@@H](C(=O)Nc1ccc(F)cc1)c1ccccc1 (stereo partly drawn) [TDH-176, (R)-2-((4-fluorophenyl)amino)-2-oxo-1-phenylethyl 3-amino-6-(1-(1-(10-(2-((3-(2,6-dioxopiperidin-3-yl)-4-oxo-3,4-dihydrobenzo[d][1,2,3]triazin-6-yl)oxy)acetamido)decyl)piperidin-4-yl)-1H-pyrazol-4-yl)pyrazine-2-carboxylate] | – | – | 22 nM | 34.07% | 23.76% | 44.28% | 35.42% | –
3 | Nc1ncc(-c2cnn(C3CCN(CCCC4CCN(C(=O)CCc5ccc6c(c5)C(=O)N(C5CCC(=O)NC5=O)C6=O)CC4)CC3)c2)nc1C(=O)O[C@@H](C(=O)Nc1ccc(F)cc1)c1ccccc1 (stereo partly drawn) [TDH-484, (R)-2-((4-fluorophenyl)amino)-2-oxo-1-phenylethyl 3-amino-6-(1-(1-(3-(1-(3-(2-(2,6-dioxopiperidin-3-yl)-1,3-dioxoisoindolin-5-yl)propanoyl)piperidin-4-yl)propyl)piperidin-4-yl)-1H-pyrazol-4-yl)pyrazine-2-carboxylate] | 66.68% | 37.9% | 0.92 nM | 89.17% | 91.3% | – | – | –
4 | Nc1ncc(-c2cnn(C3CCN(CC4CN(C(=O)CNc5cccc6c5C(=O)N(C5CCC(=O)NC5=O)C6=O)CCO4)CC3)c2)nc1C(=O)OC(C(=O)Nc1ccc(F)cc1)c1ccccc1 (stereo not drawn) [TDH-306, 2-((4-fluorophenyl)amino)-2-oxo-1-phenylethyl 3-amino-6-(1-(1-((4-((2-(2,6-dioxopiperidin-3-yl)-1,3-dioxoisoindolin-4-yl)glycyl)morpholin-2-yl)methyl)piperidin-4-yl)-1H-pyrazol-4-yl)pyrazine-2-carboxylate] | – | – | 5.4 nM | 62.87% | 45.31% | 34.35% | 43.09% | –
5 | COc1ccc(C(=O)N2CCC(CN3CCN(CCCN4CCC(n5cc(-c6cnc(N)c(C(=O)O[C@@H](C(=O)Nc7ccc(F)cc7)c7ccccc7)n6)cn5)CC4)CC3)CC2)cc1N1CCC(=O)NC1=O [TDH-478, (R)-2-((4-fluorophenyl)amino)-2-oxo-1-phenylethyl 3-amino-6-(1-(1-(3-(4-((1-(3-(2,4-dioxotetrahydropyrimidin-1(2H)-yl)-4-methoxybenzoyl)piperidin-4-yl)methyl)piperazin-1-yl)propyl)piperidin-4-yl)-1H-pyrazol-4-yl)pyrazine-2-carboxylate] | 92.11% | 43.19% | 0.26 nM | 89.29% | 86.88% | – | – | –
6 | Nc1ncc(-c2cnn(C3CCN(C(=O)C4CCN(C(=O)CNc5ccc6c(c5)C(=O)N(C5CCC(=O)NC5=O)C6=O)CC4)CC3)c2)nc1C(=O)O[C@@H](C(=O)Nc1ccc(F)cc1)c1ccccc1 (stereo partly drawn) [TDH-353, (R)-2-((4-fluorophenyl)amino)-2-oxo-1-phenylethyl 3-amino-6-(1-(1-(1-((2-(2,6-dioxopiperidin-3-yl)-1,3-dioxoisoindolin-5-yl)glycyl)piperidine-4-carbonyl)piperidin-4-yl)-1H-pyrazol-4-yl)pyrazine-2-carboxylate] | – | – | 26 nM | 75.35% | 86.12% | – | 49.23% | 55.34 (1.1µM) %
7 | Nc1ncc(-c2cnn(C3CCN(CC4CCN(CC(=O)N5CC(Nc6cccc7c6C(=O)N(C6CCC(=O)NC6=O)C7=O)C5)CC4)CC3)c2)nc1C(=O)OC(C(=O)Nc1ccc(F)cc1)c1ccccc1 (stereo not drawn) [TDH-271, 2-((4-fluorophenyl)amino)-2-oxo-1-phenylethyl 3-amino-6-(1-(1-((1-(2-(3-((2-(2,6-dioxopiperidin-3-yl)-1,3-dioxoisoindolin-4-yl)amino)azetidin-1-yl)-2-oxoethyl)piperidin-4-yl)methyl)piperidin-4-yl)-1H-pyrazol-4-yl)pyrazine-2-carboxylate] | – | – | 85 nM | 1.47% | 4.22% | 45.32% | 76.94% | –
8 | Nc1ncc(-c2cnn(C3CCN(C(=O)CC4CCN(C(=O)COc5cccc6c5C(=O)N(C5CCC(=O)NC5=O)C6=O)CC4)CC3)c2)nc1C(=O)O[C@@H](C(=O)Nc1ccc(F)cc1)c1ccccc1 (stereo partly drawn) [TDH-337, (R)-2-((4-fluorophenyl)amino)-2-oxo-1-phenylethyl 3-amino-6-(1-(1-(2-(1-(2-((2-(2,6-dioxopiperidin-3-yl)-1,3-dioxoisoindolin-4-yl)oxy)acetyl)piperidin-4-yl)acetyl)piperidin-4-yl)-1H-pyrazol-4-yl)pyrazine-2-carboxylate] | – | – | 2.5 nM | 46.82% | 65.07% | 32.31% | 45.5% | –
9 | Nc1ncc(-c2cnn(C3CCN(CC4CCN(c5ccc6nnn(C7CCC(=O)NC7=O)c(=O)c6c5)CC4)CC3)c2)nc1C(=O)O[C@@H](C(=O)Nc1ccc(F)cc1)c1ccccc1 (stereo partly drawn) [TDH-172, (R)-2-((4-fluorophenyl)amino)-2-oxo-1-phenylethyl 3-amino-6-(1-(1-((1-(3-(2,6-dioxopiperidin-3-yl)-4-oxo-3,4-dihydrobenzo[d][1,2,3]triazin-6-yl)piperidin-4-yl)methyl)piperidin-4-yl)-1H-pyrazol-4-yl)pyrazine-2-carboxylate] | – | – | 26 nM | 59.24% | 57.1% | 85.53% | 74.34% | –
10 | Nc1ncc(-c2cnn(C3CCN(CC4CCN(C(=O)COc5cccc6c5C(=O)N(C5CCC(=O)NC5=O)C6=O)CC4)CC3)c2)nc1C(=O)O[C@@H](C(=O)Nc1ccc(F)cc1)c1ccccc1 (stereo partly drawn) [TDH-148, (R)-2-((4-fluorophenyl)amino)-2-oxo-1-phenylethyl 3-amino-6-(1-(1-((1-(2-((2-(2,6-dioxopiperidin-3-yl)-1,3-dioxoisoindolin-4-yl)oxy)acetyl)piperidin-4-yl)methyl)piperidin-4-yl)-1H-pyrazol-4-yl)pyrazine-2-carboxylate] | – | – | 1.4 nM | 46.29% | 48.24% | 54.25% | 15.48% | –
11 | Nc1ncc(-c2cnn(C3CCN(CCOCCOCCOCCNC(=O)C4CCN(c5cccc6c5C(=O)N(C5CCC(=O)NC5=O)C6=O)CC4)CC3)c2)nc1C(=O)O[C@@H](C(=O)Nc1ccc(F)cc1)c1ccccc1 (stereo partly drawn) [TDH-139, (R)-2-((4-fluorophenyl)amino)-2-oxo-1-phenylethyl 3-amino-6-(1-(1-(1-(1-(2-(2,6-dioxopiperidin-3-yl)-1,3-dioxoisoindolin-4-yl)piperidin-4-yl)-1-oxo-5,8,11-trioxa-2-azatridecan-13-yl)piperidin-4-yl)-1H-pyrazol-4-yl)pyrazine-2-carboxylate] | – | – | 4.9 nM | – | 78.56% | 18.11% | 61.89% | –

— patent US20240252488A1 (KOREA RESEARCH INSTITUTE OF CHEMICAL TECHNOLOGY, priority 2020, published 2024)
